# According to US9650340B2, “5-fluoro-N-(pyridin-2-yl)pyridin-2-amine derivatives containing a sulfoximine group” (BAYER PHARMA AKTIENGESELLSCHAFT, priority 2012, dated 2017):
# Read-outs that look alike come from different tables or passages of the source.
# How the values were obtained:
# [1] = target: T1, CDK2/CycE (Homo sapiens, UniProt P24941); assay: CDK2/CycE high ATP kinase assay (TR-FRET, 2 mM ATP); assay type: biochemical; conditions: Method 2b
# T1 construct: GST; purchased ProQinase GmbH (Freiburg, Germany); host or cells: insect cells (Sf9)
# Protocol: 2b. CDK2/CycE High ATP Kinase Assay:
# CDK2/CycE-inhibitory activity of compounds of the present invention at 2 mM adenosine-tri-phosphate (ATP) was quantified employing the CDK2/CycE TR-FRET (TR-FRET=Time Resolved Fluorescence Energy Transfer) assay as described in the following paragraphs.
# Recombinant fusion proteins of GST and human CDK2 and of GST and human CycE, expressed in insect cells (Sf9) and purified by Glutathion-Sepharose affinity chromatography, were purchase from ProQinase GmbH (Freiburg, Germany). As substrate for the kinase reaction biotinylated peptide biotin-Ttds-[…] (C-terminus in amid form) was used which can be purchased e.g. form the company JERINI peptide technologies (Berlin, Germany).
# For the assay 50 nl of a 100 fold concentrated solution of the test compound in DMSO was pipetted into a black low volume 384 well microtiter plate (Greiner Bio-One, Frickenhausen, Germany), 2 μl of a solution of CDK2/CycE in aqueous assay buffer [50 mM Tris/HCl pH 8.0, 10 mM MgCl2, 1.0 mM dithiothreitol, 0.1 mM sodium ortho-vanadate, 0.01% (v/v) Nonidet-P40 (Sigma)] were added and the mixture was incubated for 15 min at 22° C. to allow pre-binding of the test compounds to the enzyme before the start of the kinase reaction. Then the kinase reaction was started by the addition of 3 μl of a solution ATP (3.33 mM=>final conc. in the 5 μl assay volume is 2 mM) and substrate (1.25 μM=>final conc. in the 5 μl assay volume is 0.75 μM) in assay buffer and the resulting mixture was incubated for a reaction time of 25 min at 22° C. The concentration of CDK2/CycE was adjusted depending of the activity of the enzyme lot and was chosen appropriate to have the assay in the linear range, typical concentrations were in the range of 15 ng/ml. The reaction was stopped by the addition of 5 μl of a solution of TR-FRET detection reagents (0.2 μM streptavidine-XL665 [Cisbio Bioassays, Codolet, France] and 1 nM anti-RB(pSer807/pSer811)-antibody from BD Pharmingen [#558389] and 1.2 nM LANCE EU-W1024 labeled anti-mouse IgG antibody [Perkin-Elmer, product no. AD0077, as an alternative a Terbium-cryptate-labeled anti-mouse IgG antibody from Cisbio Bioassays can be used]) in an aqueous EDTA-solution (100 mM EDTA, 0.2% (w/v) bovine serum albumin in 100 mM HEPES/NaOH pH 7.0).
# The resulting mixture was incubated 1 h at 22° C. to allow the formation of complex between the phosphorylated biotinylated peptide and the detection reagents. Subsequently the amount of phosphorylated substrate was evaluated by measurement of the resonance energy transfer from the Eu-chelate to the streptavidine-XL. Therefore, the fluorescence emissions at 620 nm and 665 nm after excitation at 350 nm were measured in a TR-FRET reader, e.g. a Rubystar (BMG Labtechnologies, Offenburg, Germany) or a Viewlux (Perkin-Elmer). The ratio of the emissions at 665 nm and at 622 nm was taken as the measure for the amount of phosphorylated substrate.
# [2] = tested on: HeLa, human cervical tumour cells; assay: Proliferation assay, HeLa (crystal violet); assay type: cell-based; conditions: 4 days, read-out: Inhibition of HeLa cell proliferation IC50
# Protocol: (§1) Cultivated tumour cells (HeLa, human cervical tumour cells, ATCC CCL-2; NCI-H460, human non-small cell lung carcinoma cells, ATCC HTB-177; A2780, human ovarian carcinoma cells, ECACC #93112519; DU 145, hormone-independent human prostate carcinoma cells, ATCC HTB-81; HeLa-MaTu-ADR, multidrug-resistant human cervical carcinoma cells, EPO-GmbH Berlin; Caco-2, human colorectal carcinoma cells, ATCC HTB-37; B16F10, mouse melanoma cells, ATCC CRL-6475) were plated at a density of 5,000 cells/well (DU145, HeLa-MaTu-ADR), 3,000 cells/well (NCI-H460, HeLa), 2,500 cells/well (A2780), 1,500 cells/well (Caco-2), or 1,000 cells/well (B16F10) in a 96-well multititer plate in 200 μL of their respective growth medium supplemented 10% fetal calf serum. After 24 hours, the cells of one plate (zero-point plate) were stained with crystal violet (see below), while the medium of the other plates was replaced by fresh culture medium (200 μl), to which the test substances were added in various concentrations (0 μM, as well as in the range of 0.001-10 μM; the final concentration of the solvent dimethyl sulfoxide was 0.5%). The cells were incubated for 4 days in the presence of test substances. Cell proliferation was determined by staining the cells with crystal violet: the cells were fixed by adding 20 μl/measuring point of an 11% glutaric aldehyde solution for 15 minutes at room temperature. After three washing cycles of the fixed cells with water, the plates were dried at room temperature. The cells were stained by adding 100 μl/measuring point of a 0.1% crystal violet solution (pH 3.0). After three washing cycles of the stained cells with water, the plates were dried at room temperature. The dye was dissolved by adding 100 μl/measuring point of a 10% acetic acid solution. The extinction was determined by photometry at a wavelength of 595 nm. The change of cell number, in percent, was calculated by normalization of the measured values to the extinction values of the zero-point plate (=0%) and the extinction of the untreated (0 μm) cells (=100%). The IC50 values (inhibitory concentration at 50% of maximal effect) were determined by means of a 4 parameter fit. Non-adherent MOLM-13 human acute myeloid leukemia cells (DSMZ ACC 554) were seeded at a density of 5,000 cells/well in a 96-well multititer plate in 100 μL of growth medium supplemented 10% fetal calf serum. After 24 hours, cell viability of one plate (zero-point plate) was determined with the Cell Titre-Glo Luminescent Cell Viability Assay (Promega), while 50 μL of test compound containing medium was added to the wells of the other plates (final concentrations in the range of 0.001-10 μM and DMSO controls; the final concentration of the solvent dimethyl sulfoxide was 0.5%). Cell viability was assessed after 72-hour exposure with the Cell Titre-Glo Luminescent Cell Viability Assay (Promega).
# [3] = tested on: DU 145, hormone-independent human prostate carcinoma cells; assay: Proliferation assay, DU145 (crystal violet); assay type: cell-based; conditions: DU145, 4 days, read-out: Inhibition of DU145 cell proliferation IC50
# Protocol: as §1
Structure (SMILES),IC50 [1],"IC50 ([2]; Homo sapiens, 96 h)","IC50 ([3]; Homo sapiens, DU-145, 96 h)",IC50 [2],IC50 [3]
"COc1cc(F)ccc1-c1cc(Nc2cc(CS(C)(=O)=NC(C)=O)ccn2)ncc1F (racemic) [Example 13, (rac)-N-{[(2-{[5-Fluoro-4-(4-fluoro-2-methoxyphenyl)pyridin-2-yl]amino}pyridin-4-yl)methyl](methyl)oxido-λ^6-sulfanylidene}acetamide]",3690 nM,100 nM,110 nM,,
"CCOc1cc(F)ccc1-c1cc(Nc2cc(CS(C)(=N)=O)cc(F)n2)ncc1F (single isomer, unassigned; (-)) [Example 29, (−)-4-(2-Ethoxy-4-fluorophenyl)-5-fluoro-N-{6-fluoro-4-[(S-methylsulfonimidoyl)methyl]pyridin-2-yl}pyridin-2-amine]",1710 nM,,,110 nM,110 nM
"COc1cc(F)ccc1-c1cc(Nc2cc(CS(C)(=N)=O)cc(F)n2)ncc1F (racemic) [Example 17, (rac)-5-Fluoro-4-(4-fluoro-2-methoxyphenyl)-N-{6-fluoro-4-[(S-methylsulfonimidoyl)methyl]pyridin-2-yl}pyridin-2-amine]",886 nM,46 nM,48 nM,,
"COc1cc(F)ccc1-c1cc(Nc2cc(CS(C)(=N)=O)ccn2)ncc1F (single isomer, unassigned; (+)) [Example 2, (+)-5-Fluoro-4-(4-fluoro-2-methoxyphenyl)-N-{4-[(S-methylsulfonimidoyl)methyl]pyridin-2-yl}pyridin-2-amine]",2920 nM,,,110 nM,33 nM
"COc1cc(F)ccc1-c1cc(Nc2cc(CS(C)(=O)=NC(=O)C(F)(F)F)cc(C(F)(F)F)n2)ncc1F (single isomer, unassigned; (-)) [Example 25, (−)-2,2,2-Trifluoro-N-[{[2-{[5-fluoro-4-(4-fluoro-2-methoxyphenyl)pyridin-2-yl]amino}-6-(trifluoromethyl)-pyridin-4-yl]methyl}(methyl)oxido-λ^6-sulfanylidene]acetamide]",2640 nM,,,35 nM,37 nM
"COc1cc(F)ccc1-c1cc(Nc2cc(CS(C)(=N)=O)ccn2)ncc1F (racemic) [Example 1, (rac)-5-Fluoro-4-(4-fluoro-2-methoxyphenyl)-N-{4-[(S-methylsulfonimidoyl)methyl]pyridin-2-yl}pyridin-2-amine]",5860 nM,95 nM,37 nM,,
"COc1cc(F)ccc1-c1cc(Nc2cc(CS(C)(=N)=O)cc(Cl)n2)ncc1F (racemic) [Example 7, (rac)-N-{6-Chloro-4-[(S-methylsulfonimidoyl)methyl]pyridin-2-yl}-5-fluoro-4-(4-fluoro-2-methoxyphenyl)pyridin-2-amine]",630 nM,32 nM,37 nM,,
"COc1cc(F)ccc1-c1cc(Nc2cc(CS(C)(=O)=NC#N)ccn2)ncc1F (single isomer, unassigned) [Example 10, {[(2-{[5-Fluoro-4-(4-fluoro-2-methoxyphenyl)pyridin-2-yl]amino}pyridin-4-yl)methyl](methyl)oxido-λ^6-sulfanylidene}cyanamide]",1420 nM,31 nM,34 nM,,
"COc1cc(F)ccc1-c1cc(Nc2cc(CS(C)(=N)=O)cc(C)n2)ncc1F (racemic) [Example 4, (rac)-5-Fluoro-4-(4-fluoro-2-methoxyphenyl)-N-{6-methyl-4-[(S-methylsulfonimidoyl)methyl]pyridin-2-yl}pyridin-2-amine]",1010 nM,35 nM,67 nM,,
